From PubChem BioAssay AID2327 (Broad Institute, 2010)
Records with an inconclusive call do not appear. Active and inactive are the calls of the source.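 The calls were made as follows: active = compound whose fitted EC50 for lowering fibroblast viability lies at most a set limit above the top dose tested; inconclusive = flat fit with 30 to 70% activity, or poor fit; inactive = the rest.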

Tested on: NIH-3T3 fibroblast viability, Alamar Blue, 48 h, fluconazole
Test: NIH-3T3 fibroblast cytotoxicity, dose response, cytotoxicity control, cell-based, fluorescence, Alamar Blue, secondary assay (AID 2327)

SMILES	EC50
O=C1/C(=C/c2cccnc2)SC(=S)N1C1CCS(=O)(=O)C1 (configuration not stated)	> 15 µM (inactive)
CC1CCC(C(C)C)C(OC(=O)C[n+]2cc(-c3ccc(Cl)cc3)n3c2CCCCC3)C1 (configuration not stated)	> 16 µM (inactive)
O=C1/C(=C\c2cccnc2)SC(=S)N1C1CCS(=O)(=O)C1 (configuration not stated)	> 16 µM (inactive)
NC(=NCCCCCCN=C(N)/N=C(\N)Nc1ccc(Cl)cc1)/N=C(\N)Nc1ccc(Cl)cc1	> 16 µM (inactive)
C[C@]12CC[C@H](O)C[C@@H]1CC[C@@H]1[C@@H]2CC[C@]2(C)C(=O)CC[C@@H]12	> 16 µM (inactive)
C[C@]12CCC3[C@@H](CC[C@H]4C[C@@H](O)CC[C@]34C)C1CCC2=O (some centres not stated)	> 15 µM (inactive)
CC1CCC(C(C)C)C(OC(=O)Cn2c(-c3ccc(Br)cc3)[n+](C)c3ccccc32)C1 (configuration not stated)	> 16 µM (inactive)
